Measurements reported in PubChem BioAssay AID1417 (Emory University Molecular Libraries Screening Center, 2008).

molecular target: Induced myeloid leukemia cell differentiation protein Mcl-1 (Homo sapiens) (UniProt Q07820); assay: Mcl-1 Noxa peptide disruption concentration-response – biochemical, TR-FRET, dose response (AID 1417); details: Mcl-1/Noxa peptide interaction, cell-free TR-FRET (terbium/rhodamine), 2 h; measured here: absolute IC50
Sequence (Q07820 whole entry, looked up): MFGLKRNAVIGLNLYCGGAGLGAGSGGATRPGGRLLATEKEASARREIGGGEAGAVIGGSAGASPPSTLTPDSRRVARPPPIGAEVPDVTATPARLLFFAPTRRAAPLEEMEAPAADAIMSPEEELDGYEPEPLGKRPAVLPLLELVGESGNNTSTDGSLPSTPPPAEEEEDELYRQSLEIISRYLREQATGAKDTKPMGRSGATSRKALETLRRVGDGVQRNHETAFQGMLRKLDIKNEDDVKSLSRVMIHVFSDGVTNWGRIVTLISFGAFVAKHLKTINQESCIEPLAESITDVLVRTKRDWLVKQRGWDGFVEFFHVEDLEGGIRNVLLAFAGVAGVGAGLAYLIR

Point of comparison: `COc1cc(/C=C2\SC(=O)N(Cc3ccc(Cl)cc3)C2=O)cc([N+](=O)[O-])c1O`, IC50 7.11 µM. Against it:
- CC(=O)Oc1ccc(NC(=O)CSc2ccccc2)cc1 — higher, > 54 µM
- O=C(Nc1nc2ccccc2[nH]1)c1ccc(Cl)c([N+](=O)[O-])c1 — within 1.5-fold, 8.74 µM
- CCOc1ccc(-c2ccc(/C=C3/C(=N)N4C=CSC4=NC3=O)o2)c([N+](=O)[O-])c1 — 4.5-fold lower, 1.58 µM
- O=C(Nc1ccc(S(=O)(=O)Nc2nccs2)cc1)/C(=C/c1ccccc1Cl)NC(=O)c1ccccc1 — 2.4-fold lower, 2.93 µM
- Cc1cccc(OCCCC(=O)Nc2ccc(N(C)C)cc2)c1 — 4-fold lower, 1.8 µM
- COc1cc(OC)c2c(O)c3c(c(-c4c5c(c(O)c6c(OC)cc(OC)cc46)CO[C@@H](C)[C@H]5O)c2c1)[C@H](O)[C@H](C)OC3 — higher, > 54 µM
- O=[N+]([O-])c1cc(/C=N/Nc2nc3ccccc3[nH]2)c(O)cc1O — 1.9-fold higher, 13.3 µM
- CCOC(=O)c1sc2nc3c(SCC(=O)O)cc(C(=O)c4cc(F)ccc4O)cn3c(=O)c2c1C — 3.1-fold lower, 2.26 µM
- Cc1ccc(N=Nc2c(N)[nH]n3c(=O)cc(-c4ccccc4)nc23)cc1 — 2-fold higher, 14 µM
- Cc1nn(CC(=O)Nc2ccc(N(C)C)cc2)c(C)c1[N+](=O)[O-] — higher, > 54 µM
- COc1cc(-c2nnc(SCc3cc(=O)oc4cc(O)c(O)cc34)o2)cc(OC)c1OC — lower, < 0.4 µM
- CC(/C=C/c1ccco1)=N/NC(=O)Cc1cccs1 — 1.6-fold lower, 4.32 µM
- O=C(CSc1ccsc1[N+](=O)[O-])N1CCN(c2ccc(Cl)cc2)CC1 — within 1.5-fold, 5.22 µM
- COc1ccc(N2CCC(CNC(=S)Nc3cccc(OC)c3)C2)cc1 (stereo unspecified) — higher, > 54 µM
- Oc1c(Cl)cc(Cl)cc1/C=C/c1ccc2cccc(O)c2n1 — higher, > 54 µM
- CC(=O)N1C(=O)/C(=C2\SC(=S)N(NC(=O)c3ccc(O)cc3)C2=O)c2ccccc21 — 4.6-fold lower, 1.55 µM
- Cc1cc2nc(-c3ccc(SCc4ccc(C(=O)O)cc4)nc3)[nH]c2cc1C — lower, < 0.4 µM
- CCCCn1c(-c2ccc(Cl)cc2)nc2c(=O)n(C)c(=O)[nH]c21 — higher, > 54 µM
- C=C(C)C(=O)Nc1cccc(C2=NOC3(C2)C[C@@H](C(N)=O)N(C(=O)c2ccc(Cl)cc2)C3)c1 (stereo partly specified) — lower, < 0.4 µM
- CC(/C=C1\SC(=S)N(c2ccc(C(=O)O)cc2)C1=O)=C\c1ccccc1 — 2.5-fold lower, 2.81 µM
- CSc1cnn(Cc2ccccc2)c(=O)c1SCc1ccccc1 — higher, > 54 µM
- Cc1ccc(N=C2NC(=O)/C(=C/C=C/c3ccco3)S2)cc1C — 1.5-fold lower, 4.62 µM
- C=CCOc1c(OC)cc(/C=N/Nc2cccc(C(=O)O)c2)c(Br)c1Br — higher, > 54 µM
- O=C(O)CCc1nc(-c2cccs2)no1 — higher, > 54 µM
- O=c1[nH]c(=S)[nH]c(O)c1N=Nc1ccc(-c2ccccc2)cc1[N+](=O)[O-] — 2.4-fold lower, 2.99 µM
- CCCCn1c(SCC(=O)NCCOC)nc2ccc(N3CCOCC3)cc2c1=O — higher, > 54 µM
- C=CCOC(=O)C1=C(C)N=c2s/c(=C3\C(=O)N(CC(=O)O)c4ccccc43)c(=O)n2C1c1ccc(OC)cc1 (stereo unspecified) — 2-fold lower, 3.48 µM
- CCC(=O)NC1=C(Cl)C(=O)C(NC(=O)CC)=C(Cl)C1=O — lower, < 0.4 µM
- O=C(NCCCO)c1ccc2nc(-c3ccco3)c(-c3ccco3)nc2c1 — higher, > 54 µM
- N=C1CCC(=N)c2c1c(O)c1ccccc1c2O — higher, > 54 µM
- O=C(O)c1ccc(N/N=C/c2ccc(-c3ccc(Cl)cc3Cl)o2)cc1 — 1.6-fold lower, 4.36 µM
- CNc1ccc(Br)cc(C(=O)/C=C/c2cccc(Cl)c2Cl)c1=O — 16-fold lower, 0.439 µM
- CN(C)S(=O)(=O)c1cccc(-c2nn(-c3ccccc3)cc2/C=C2\SC(=S)N(CC(=O)O)C2=O)c1 — 1.7-fold lower, 4.28 µM
- Cc1ccc2nc(N3C(=O)C(O)=C(C(=O)c4cc5ccccc5o4)C3c3cccs3)sc2c1 (stereo unspecified) — 5.8-fold lower, 1.22 µM
- CCOC(=O)c1ccc2c(c1)C1C=CCC1C(C(=O)O)N2 (stereo unspecified) — lower, < 0.4 µM
- Nc1nc(N)c2cc(Sc3ccc4ccccc4c3)ccc2n1 — 1.8-fold lower, 4.06 µM
- O=C(/C=C/c1cccs1)N1CCN(c2ccc(O)cc2)CC1 — 2-fold lower, 3.64 µM
- O=C(Nc1ccc2nc(-c3ccco3)c(-c3ccco3)nc2c1)NC1CC1 — 5.3-fold lower, 1.33 µM
- Cc1ccc(C2=NC(=O)/C(=C/c3cc(O)c(O)c(Br)c3)S2)cc1 — lower, < 0.4 µM
- Cc1ccc(NC(=O)CN2C(=O)/C(=C3\SC(=S)N(C4CCS(=O)(=O)C4)C3=O)c3ccccc32)cc1 (stereo unspecified) — lower, < 0.4 µM
